pIC50: −log10 of the molar value.
Legend:
[1] = test system: hepatocellular carcinoma or HCC; conditions: Table 2-3; labels (2) and (3), PubMed references; cited from earlier work
[2] = test system: HCC cell lines, Mahlavu, PLC5, HepG2, and Huh7; experiment: MTT cell viability test in HCC cell lines; conditions: HCC cell lines, MTT
Experimental: (§1) The HCC cell lines, Mahlavu, PLC5, HepG2, and Huh7, were cultured in Dulbecco's Modified Eagle Medium (DMEM; Seromed, Berlin, Germany) supplemented with 10% heat-inactivated fetal bovine serum, 100 μg/ml streptomycin, 100 μg/ml penicillin, and 2 mM L-glutamine in a humidified atmosphere containing 5% CO2 at 37° C. […] The cells were exposed to different concentrations of the small molecules for 72 hours. Control cells were incubated in the absence of small molecules. Afterwards, the cells were incubated with medium containing MTT for 2 hours. […] For the clonogenic assay, Huh7 cells were seeded out in appropriate dilutions in a 6-well plate and treated with selected small molecules at various concentrations for 15 days. Colonies were fixed with glutaraldehyde (6.0% v/v), stained with crystal violet (0.5% w/v), and counted.

HCC cell lines = experiment: Drug efficacy label of top 10 CMap drugs (MTT or clonogenic); format: cell-based; conditions: Table 2-3; labels (1) and (4); gene set in which the drug ranked top 10;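 also: label 1 means effective by MTT or clonogenic assay and 4 means ineffective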
Experimental: as §1

Huh7 cells = experiment: Clonogenic assay; format: cell-based; conditions: for inhibition at 10 µM: Homo sapiens, Huh-7, 360 h, Table 3-1, 15 days; for inhibition at 10 µM / Clonogenic assay: colony number at 10 μM; for Clonogenic assay: Table 2-2, 15 days
Experimental: The HCC cell lines, Mahlavu, PLC5, HepG2, and Huh7, were cultured in Dulbecco's Modified Eagle Medium (DMEM; Seromed, Berlin, Germany) supplemented with 10% heat-inactivated fetal bovine serum, 100 μg/ml streptomycin, 100 μg/ml penicillin, and 2 mM L-glutamine in a humidified atmosphere containing 5% CO2 at 37° C. The viability of the exposed cells was determined using the MTT cell viability assay kit (Sigma-Aldrich, St. Louis, USA), according to the manufacturer's instructions. […] The cells were exposed to different concentrations of the small molecules for 72 hours. Control cells were incubated in the absence of small molecules. Afterwards, the cells were incubated with medium containing MTT for 2 hours. The optical density at 450 nm was measured using a microplate reader (Spectral Max250). For the clonogenic assay, Huh7 cells were seeded out in appropriate dilutions in a 6-well plate and treated with selected small molecules at various concentrations for 15 days. Colonies were fixed with glutaraldehyde (6.0% v/v), stained with crystal violet (0.5% w/v), and counted.

Huh-7 cells = conditions: proliferation of Huh-7 cells, other reports; cited from earlier work
leukemic cells = conditions: cited from earlier work
[3] = test system: NPC cell lines, TW01, TW03, TW04, BM1
Experimental: NPC cell lines, TW01, TW03, and TW04 provided by Dr. C T Lin (National Taiwan University, Taiwan), were derived from primary nasopharyngeal tumors of Chinese patients with de novo NPC and had been tested and authenticated (27). NPC cell line BM1, provided by Dr. S K Liao (Chang Gung University, Taiwan), was derived from bone metastatic lesions of an NPC patient (28). NPC cell lines were maintained in DMEM with 10% FBS containing penicillin (100 U/mL) and streptomycin (100 μg/mL) in 5% CO2 at 37° C. Cell viability was determined using the XTT cell viability assay kit (Sigma-Aldrich, St. Louis, USA), according to the manufacturer's instructions. […] Cells were exposed with or without small molecules for 72 hours at different concentrations. Then, the cells were incubated with medium containing XTT in an amount equal to 20% of the culture medium volume for 2 hours. Optical density was measured using a microplate reader (Spectral Max250) at 450 nm.

B16 melanoma cells = conditions: cited from earlier work

pIC50 ([2]; 72 h, Table 3-1) | pIC50 ([2]; 72 h, Table 2-2) | Compound | drug efficacy label [1] | drug efficacy label (HCC cell lines) | inhibition at 10 µM (Huh7 cells) [%] | Clonogenic assay (Huh7 cells) | other results
< 5.00 |  | CC(C(O)c1ccc(O)cc1)N1CCC(Cc2ccccc2)CC1 (centres unmarked) [ifenprodil] | ifenprodil (3) |  |  |  | 
< 5.00 | < 5.00 | O=c1cc(-c2ccc(O)c(O)c2)oc2cc(O)cc(O)c12 [luteolin] |  | luteolin (4) | > 50 | Ineffective | pIC50 (Huh-7 cells): ~4.30
6.00 to 7.00 |  | Cc1cc(/C=C/c2ccc3cc(N(C)C)ccc3[n+]2C)c(C)n1-c1ccccc1 [pyrvinium] | pyrvinium (3) |  |  |  | 
 |  | O=C(CCCCCCC(=O)Nc1ccccc1)NO [vorinostat] | vorinostat (2) |  |  |  | 
< 5.00 | < 5.00 | CN1CCN(CCCN2c3ccccc3Sc3ccc(C(F)(F)F)cc32)CC1 [trifluoperazine] |  | trifluoperazine (1) | > 50 | Effective (Effectiveness in clonogenic assay is defined as reducing more than 50% colony number at 10 μM) | apoptosis (leukemic cells): can induce apoptosis; cytotoxicity in NPC cell lines [3]: Dose-dependent cytotoxicity; apoptosis (B16 melanoma cells): can induce apoptosis
 |  | Nc1ccccc1NC(=O)c1ccc(CNC(=O)OCc2cccnc2)cc1 [MS-275] | MS-275 (2) |  |  |  | 
 |  | CC(/C=C/C(=O)NO)=C\[C@@H](C)C(=O)c1ccc(N(C)C)cc1 [trichostatin A] |  | trichostatin A (1) |  |  | cytotoxicity in NPC cell lines [3]: Dose-dependent cytotoxicity; pIC50 ([2]; Table 2-2, 72 hours): 6.00 to 7.00; pIC50 ([2]; Table 3-1, 72 hours): 6.00 to 7.00
< 5.00 | < 5.00 | O=c1cc(-c2ccc(O)cc2)oc2cc(O)cc(O)c12 [apigenin] |  | apigenin (1) | > 50 | Effective (Effectiveness in clonogenic assay is defined as reducing more than 50% colony number at 10 μM) | growth / survival of Huh7 cells (Huh7 cells): inhibited the growth of Huh7 cells
5.00 to 5.30 | < 5.00 | CN(C)CCCN1c2ccccc2Sc2ccc(Cl)cc21 [chlorpromazine] |  | chlorpromazine (1) | > 50 | Effective (Effectiveness in clonogenic assay is defined as reducing more than 50% colony number at 10 μM) | 

— patent US20110287953A1, “METHOD FOR DISCOVERING POTENTIAL DRUGS” (priority 2010, published 2011)
